Consider 46 molecules from patent US20230025880A1, “FUSED TRICYCLIC COMPOUND AND MEDICINAL USE THEREOF” (JAPAN TOBACCO INC., priority 2020, published 2023).

Structures are written as SMILES. pIC50: −log10 of the molar value.

For this experiment, the target named is T1, human PDHK2 (hPDHK2) (Homo sapiens, UniProt Q15119).
T1 construct: made in house; host or cells: Escherichia coli BL21(DE3), pET-17b vector
Put plainly: Inhibitory action of PDHK2 activity (residual PDH activity, NADH absorbance at 340 nm). It is filed as biochemical. Conditions: PDH/hPDHK2 complex, PDHK reaction 45 min at room temperature. How it is done:
In the case of human PDHK2 (hPDHK2, NCBI Reference Database Accession number NM_002611.4), modified hPDHK2 cDNA wherein FLAG-Tag sequence was added to the N terminus of hPDHK2 cDNA clone (pReceiver-M01/PDK2-GeneCopoeia) as the base was prepared by polymerase chain reaction (PCR) and ligated to the NdeI/EcoRI site of pET-17b vector (Merck KGaA, Catalog Number 69663-3). The recombinant construct was transformed into Escherichia coli DH5α. The recombinant clones were identified, and plasmid DNA was isolated and subjected to the DNA sequence analysis. One clone which had the expected nucleic acid sequence was selected for expression work.
For expression of hPDHK2 activity, Escherichia coli strain BL21(DE3) cells (Merck KGaA, Catalog Number 69450-4) were transformed with the pET17b vector containing modified hPDHK2 cDNA. The Escherichia coli were grown to an optical density 0.6 ([…]) at 30° C. Protein expression was induced by the addition of 500 μmol/L isopropyl-β-thiogalactopyranoside. The Escherichia coli were cultured at 20° C. for 17-18 hr and harvested by centrifugation. The harvested Escherichia coli was resuspended in a suspension buffer (20 mmol/L HEPES-NaOH, 500 mmol/L sodium chloride, 1% ethylene glycol, 0.1% Pluronic (registered trademark) F-68 (pH 8.0), cOmplete, EDTA-free (Roche) (pH 8.0)), and disrupted by a microfluidizer M-110H (MIZUHO INDUSTRIAL CO., LTD.). The precipitate was removed by centrifugation and the supernatant was added to DDDDK-tagged Protein PURIFICATION GEL (MEDICAL & BIOLOGICAL LABORATORIES CO., LTD., Code No. 3329). DDDDK-tagged Protein PURIFICATION GEL was washed with a washing buffer (20 mmol/L HEPES-NaOH, 500 mmol/L sodium chloride, 1% ethylene glycol, 0.1% Pluronic F-68 (pH 8.0)) and the bound protein was eluted with elution buffer 1 (20 mmol/L HEPES-NaOH, 100 μg/mL peptide (amino acid sequence DYKDDDDK) (SEQ ID NO: 1), 500 mmol/L sodium chloride, 1% ethylene glycol, 0.1% Pluronic F-68 (pH 8.0)). The eluted fractions containing FLAG-Tagged protein were pooled, concentrated by an ultrafiltration method, added to a gel filtration column (HiLoad 26/60 Superdex 200 (GE Healthcare Life Sciences, Code No. 17-1070-01)), and eluted with elution buffer 2 (20 mmol/L HEPES-NaOH, 150 mmol/L sodium chloride, 0.5 mmol/L ethylenediaminetetraacetic acid (EDTA), 1% ethylene glycol, 0.1% Pluronic F-68 (pH 8.0)). The eluted fractions were pooled and preserved at −80° C.
PDH (porcine heart PDH complex, Sigma P7032) and 0.5 μg/mL hPDHK2 were mixed in an assay buffer (50 mmol/L 3-morpholinopropanesulfonic acid (pH 7.0), 20 mmol/L dipotassium hydrogen phosphate, 60 mmol/L potassium chloride, 2 mmol/L magnesium chloride, 0.4 mmol/L EDTA, 0.2% poloxamer, 2 mmol/L dithiothreitol) so that the final concentration of PDH was 0.025 U/mL, and the mixture was incubated at 4° C. overnight to obtain a PDH/hPDHK2 complex solution.
PDH was mixed with the assay buffer so that the final concentration was 0.025 U/mL, and the mixture was incubated at 4° C. overnight to prepare a PDH solution.
The test compounds were diluted with DMSO. To measure an inhibitory action of the test compound on the PDHK activity in the PDH/hPDHK2 complex solution, PDH/hPDHK2 complex solution (20 μL), test compound (1.5 μL) and 1.06 μmol/L ATP (diluted with assay buffer) (8.5 μL) were added to a 384 well microplate (Greiner Bio-One 781801) and PDHK reaction was performed at room temperature for 45 min (test compound well). DMSO (1.5 μL) was added to control wells instead of test compound. In addition, DMSO (1.5 μL) was added to blank wells instead of the test compound, and PDH solution was added instead of the PDH/hPDHK2 complex solution. To measure an inhibitory action of the test compound on the PDHK activity inherent in the PDH solution, a test compound was added and the PDH solution instead of the PDH/hPDHK2 complex solution was added to a blank+test compound well. […]
Consider `C[C@H]1Cn2c(nnc2C(C)(C)C(F)(F)F)-c2cnc([C@@](C)(O)C(F)(F)F)n21` [Example 39], for which the pIC50 was 8.09. Then `C[C@H]1Cn2c(nnc2C2(C(F)(F)F)CC2)-c2cnc([C@@](C)(O)C(F)(F)F)n21` [Example 40], with 7.96; and `C[C@H]1Cn2nc(C(=O)O)cc2-c2cnc([C@@](C)(O)C(F)(F)F)n21` [Example 41], with 7.68. Then `C[C@H]1Cn2nc(C#N)cc2-c2cnc([C@@](C)(O)C(F)(F)F)n21` [Example 42], with 7.62; and `C[C@H]1Cn2ncc(F)c2-c2cnc([C@@](C)(O)C(F)(F)F)n21` [Example 44], with 7.77; and `C[C@H]1Cn2nc(OCC(F)F)cc2-c2cnc([C@@](C)(O)C(F)(F)F)n21` [Example 46], with 7.89. The same measure for `C[C@H]1Cn2nc(Oc3ccc(C#N)cn3)cc2-c2cnc([C@@](C)(O)C(F)(F)F)n21` [Example 47]: 7.70; for `C[C@H]1Cn2nc(OCF)cc2-c2cnc([C@@](C)(O)C(F)(F)F)n21` [Example 48]: 7.85; for `C[C@H]1Cn2nc(OCc3ccc(C#N)cc3)cc2-c2cnc([C@@](C)(O)C(F)(F)F)n21` [Example 49]: 8.06.

`C[C@H]1Cn2nc(OCC3(C#N)CC3)cc2-c2cnc([C@@](C)(O)C(F)(F)F)n21` [Example 51] gave a pIC50 of 7.77. `C[C@H]1Cn2nc(OCC(C)(C)O)cc2-c2cnc([C@@](C)(O)C(F)(F)F)n21` [Example 52, (R)-1,1,1-trifluoro-2-((S)-9-(2-hydroxy-2-methylpropoxy)-5-methyl-5,6-dihydroimidazo[1,5-a]pyrazolo[5,1-c]pyrazin-3-yl)propan-2-ol] had a pIC50 of 7.68. The same measure for `C[C@H]1Cn2nc(OCC(=O)N3CC(F)(F)C3)cc2-c2cnc([C@@](C)(O)C(F)(F)F)n21` [Example 53]: 7.89; for `C[C@H]1Cn2c(-c3ccc(C(F)(F)F)cc3)nnc2-c2cnc([C@@](C)(O)C(F)(F)F)n21` [Example 54]: 8.03; for `C[C@H]1Cn2nc(OC(C)(C)C)cc2-c2cnc([C@@](C)(O)C(F)(F)F)n21` [Example 55]: 7.80.

As for `C[C@H]1Cn2c(-c3ccc(F)cc3C(F)(F)F)nnc2-c2cnc([C@@](C)(O)C(F)(F)F)n21` [Example 56], the pIC50 was 8.15. Then `C[C@H]1Cn2nc(OCC3(CC#N)CC3)cc2-c2cnc([C@@](C)(O)C(F)(F)F)n21` [Example 57], with 7.66.

With `C[C@H]1Cn2nc(OC3CN(C(=O)c4ccc(F)cc4)C3)cc2-c2cnc([C@@](C)(O)C(F)(F)F)n21` [Example 58], the pIC50 was 8.06. The same measure for `CCC(F)(F)c1nnc2n1C[C@H](C)n1c-2cnc1[C@@](C)(O)C(F)(F)F` [Example 59]: 8.00; for `CC(C)C(F)(F)c1nnc2n1C[C@H](C)n1c-2cnc1[C@@](C)(O)C(F)(F)F` [Example 60]: 8.17; for `C[C@H]1Cn2nc(OCCOC(F)(F)F)cc2-c2cnc([C@@](C)(O)C(F)(F)F)n21` [Example 61]: 7.85. Then `C[C@H]1Cn2c(nnc2C(F)(F)Oc2ccc(F)cc2)-c2cnc([C@@](C)(O)C(F)(F)F)n21` [Example 62], with 8.20; and `C[C@H]1Cn2nc(OCCN3CCCC3=O)cc2-c2cnc([C@@](C)(O)C(F)(F)F)n21` [Example 63], with 7.85; and `CC(=O)N1CC(COc2cc3n(n2)C[C@H](C)n2c-3cnc2[C@@](C)(O)C(F)(F)F)C1` [Example 64], with 7.72.

Molecule `C[C@H]1Cn2nc(OCC3CN(S(C)(=O)=O)C3)cc2-c2cnc([C@@](C)(O)C(F)(F)F)n21` [Example 65] showed a pIC50 of 7.89. The same measure for `C[C@H]1Cn2nc(OCC3CN(C(=O)c4ccc(F)cc4)C3)cc2-c2cnc([C@@](C)(O)C(F)(F)F)n21` [Example 66]: 7.74; for `CC(=O)N1CCC(COc2cc3n(n2)C[C@H](C)n2c-3cnc2[C@@](C)(O)C(F)(F)F)CC1` [Example 67]: 7.72; for `C[C@H]1Cn2nc(OCC3CCN(S(C)(=O)=O)CC3)cc2-c2cnc([C@@](C)(O)C(F)(F)F)n21` [Example 68]: 7.85. Then `C[C@H]1Cn2nc(OCC3CCN(C(=O)c4ccc(F)cc4)CC3)cc2-c2cnc([C@@](C)(O)C(F)(F)F)n21` [Example 69], with 7.82; and `C[C@H]1Cn2nc(Oc3cc(C(F)(F)F)ncn3)cc2-c2cnc([C@@](C)(O)C(F)(F)F)n21` [Example 70], with 7.72. For the molecule `CC(=O)N1CCC(Oc2cc3n(n2)C[C@H](C)n2c-3cnc2[C@@](C)(O)C(F)(F)F)CC1` [Example 71], the pIC50 was 7.59.

Turning to `C[C@H]1Cn2nc(Oc3cc(C4CC4)ncn3)cc2-c2cnc([C@@](C)(O)C(F)(F)F)n21` [Example 72], the pIC50 was 7.92. `C[C@H]1Cn2c(nnc2C(F)(F)c2ccccc2Cl)-c2cnc([C@@](C)(O)C(F)(F)F)n21` [Example 73] gave a negative logarithm of the IC50 (pIC50) of 8.13.

As for `C[C@H]1Cn2nc(OCC(F)(F)F)cc2-c2cnc([C@@](C)(O)C(F)(F)F)n21` [Example 74], the negative-log IC50 (pIC50) was 7.92. Then `CC(=O)N1CCC(c2cc3n(n2)C[C@H](C)n2c-3cnc2[C@@](C)(O)C(F)(F)F)CC1` [Example 75], with 7.72; and `C[C@H]1Cn2nc(OCCN3CCCS3(=O)=O)cc2-c2cnc([C@@](C)(O)C(F)(F)F)n21` [Example 76], with 7.89. Then `C[C@H]1Cn2nc(OC3CCOCC3)cc2-c2cnc([C@@](C)(O)C(F)(F)F)n21` [Example 77], with 7.77; and `C[C@H]1Cn2nc(OCC3COC3)cc2-c2cnc([C@@](C)(O)C(F)(F)F)n21` [Example 78], with 7.77. Then `C[C@H]1Cn2nc(OCC(C)(C)C#N)cc2-c2cnc([C@@](C)(O)C(F)(F)F)n21` [Example 79], with 7.82. The molecule `C[C@H]1Cn2nc(OC(C)(C)C(C)(C)O)cc2-c2cnc([C@@](C)(O)C(F)(F)F)n21` [Example 80] showed a pIC50 of 7.89.

In turn, `C[C@H]1Cn2c(nnc2C2(c3ccc(F)cc3)CC2)-c2cnc([C@@](C)(O)C(F)(F)F)n21` [Example 81] showed a negative logarithm of the IC50 (pIC50) of 8.14.

Turning to `C[C@H]1Cn2nc(OCC3CCS(=O)(=O)CC3)cc2-c2cnc([C@@](C)(O)C(F)(F)F)n21` [Example 82], the negative logarithm of the IC50 (pIC50) is 7.64. `C[C@H]1Cn2nc(OCC3CC4CCC(C3)S4(=O)=O)cc2-c2cnc([C@@](C)(O)C(F)(F)F)n21` (stereo partly shown) [Example 83] gave a pIC50 of 7.80. Then `C[C@H]1Cn2nc(OCC(C)(C)S(C)(=O)=O)cc2-c2cnc([C@@](C)(O)C(F)(F)F)n21` [Example 84], with 7.38; and `C[C@H]1Cn2nc(OCC(O)(C(F)(F)F)C(F)(F)F)cc2-c2cnc([C@@](C)(O)C(F)(F)F)n21` [Example 85], with 7.64; and `C[C@H]1Cn2nc(Oc3ccnc(C(F)(F)F)c3)cc2-c2cnc([C@@](C)(O)C(F)(F)F)n21` [Example 86], with 7.80. Then `C[C@H]1Cn2c(nnc2C(F)(F)c2ccc(C(F)(F)F)cn2)-c2cnc([C@@](C)(O)C(F)(F)F)n21` [Example 87], with 8.06.
